Measurements reported in article PMC3879121 (Journal of natural products, 2013).

Tests used:
HDAC4 = HDAC4 (Homo sapiens, UniProt P56524); test: HDAC enzyme assay; conditions: at 1 µM, initial results (data not shown)
HDAC2 = HDAC2 (Homo sapiens, UniProt Q92769); test: HDAC enzyme assay; conditions: for inhibition of HDAC2: at 1 µM, initial results (data not shown)
[1] = system: human dermal fibroblast (hDF) cells; test: Cell cytotoxicity MTS-PMS assay, hDF; type: cell-based; conditions: 72 h, read-out: hDF GI50

Chain of HDAC4 (P56524 whole entry): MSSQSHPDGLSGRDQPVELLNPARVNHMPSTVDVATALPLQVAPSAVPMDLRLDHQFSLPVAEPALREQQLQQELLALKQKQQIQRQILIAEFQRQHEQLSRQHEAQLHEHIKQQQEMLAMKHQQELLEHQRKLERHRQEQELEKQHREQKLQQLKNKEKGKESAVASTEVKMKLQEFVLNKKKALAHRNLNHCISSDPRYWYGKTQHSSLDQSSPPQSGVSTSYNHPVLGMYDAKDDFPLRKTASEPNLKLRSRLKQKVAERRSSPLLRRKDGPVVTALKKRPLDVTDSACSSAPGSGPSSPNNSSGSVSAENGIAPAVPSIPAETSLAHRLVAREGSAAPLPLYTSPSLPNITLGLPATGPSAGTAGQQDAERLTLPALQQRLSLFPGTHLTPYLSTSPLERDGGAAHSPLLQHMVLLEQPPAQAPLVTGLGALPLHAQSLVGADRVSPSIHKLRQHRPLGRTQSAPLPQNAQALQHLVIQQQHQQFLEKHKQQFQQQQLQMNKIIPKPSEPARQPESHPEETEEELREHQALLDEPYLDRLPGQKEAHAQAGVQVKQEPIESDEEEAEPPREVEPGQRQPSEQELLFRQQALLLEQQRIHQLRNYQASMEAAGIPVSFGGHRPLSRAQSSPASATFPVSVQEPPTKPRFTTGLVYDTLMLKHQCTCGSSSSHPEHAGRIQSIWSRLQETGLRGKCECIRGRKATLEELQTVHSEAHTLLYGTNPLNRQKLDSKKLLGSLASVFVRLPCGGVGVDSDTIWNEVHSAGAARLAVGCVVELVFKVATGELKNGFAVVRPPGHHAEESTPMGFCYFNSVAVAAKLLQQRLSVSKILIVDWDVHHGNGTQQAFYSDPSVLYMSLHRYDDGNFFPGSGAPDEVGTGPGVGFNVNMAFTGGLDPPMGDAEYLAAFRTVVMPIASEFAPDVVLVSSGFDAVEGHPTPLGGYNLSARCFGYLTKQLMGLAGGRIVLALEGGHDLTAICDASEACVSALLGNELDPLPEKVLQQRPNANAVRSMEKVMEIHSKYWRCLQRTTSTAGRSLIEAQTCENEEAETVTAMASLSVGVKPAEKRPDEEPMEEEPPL
Chain of HDAC2 (Q92769 whole entry): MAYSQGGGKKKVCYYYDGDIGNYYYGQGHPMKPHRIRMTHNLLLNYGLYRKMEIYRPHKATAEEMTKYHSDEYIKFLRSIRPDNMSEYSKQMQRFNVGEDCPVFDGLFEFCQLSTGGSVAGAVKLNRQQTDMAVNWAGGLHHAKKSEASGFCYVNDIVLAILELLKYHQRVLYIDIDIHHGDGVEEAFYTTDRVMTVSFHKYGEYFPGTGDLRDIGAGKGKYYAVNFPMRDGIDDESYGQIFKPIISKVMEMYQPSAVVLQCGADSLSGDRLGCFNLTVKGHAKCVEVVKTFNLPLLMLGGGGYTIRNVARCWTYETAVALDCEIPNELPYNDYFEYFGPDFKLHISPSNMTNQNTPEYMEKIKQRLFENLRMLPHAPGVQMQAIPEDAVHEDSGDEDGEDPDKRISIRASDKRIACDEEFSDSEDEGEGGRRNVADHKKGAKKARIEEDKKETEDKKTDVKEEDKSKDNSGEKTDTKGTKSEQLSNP

inhibition of HDAC4 (HDAC4) | inhibition of HDAC2 (HDAC2) | selectivity for Class I HDACs (HDAC2; HDAC2 versus Class II HDACs) | SMILES | GI50 [1]
relatively little inhibition of HDAC4 | selectively inhibited HDAC2 |  | O=C(CCCC(=O)NCCc1ccccc1)NO [compound 3, N^1-Hydroxy-N^5-phenethylglutaramide] | > 100 µM
completely inhibited |  |  | O=C(CCCCCCC(=O)Nc1ccccc1)NO [compound 2, suberoylanilide hydroxamic acid, reference compound] | 
relatively little inhibition of HDAC4 | selectively inhibited HDAC2 | over 3,500 fold | CCOC(=O)NCCCC(=O)NCCc1ccccc1 [compound 1, Ethyl 3-(phenethylcarbamoyl)propylcarbamate] | > 100 µM
